Data taken from PubChem BioAssay (NCI).
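How tested: cells in 96-well plates exposed to compound for 48 hours at five concentrations. At the GI50, growth is halved. TGI denotes the concentration required for complete inhibition of growth.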

Tests used:
Test in all cases: growth of human tumour cells (NCI), 48 h
[1] = system: 786-0 renal
[2] = system: SK-MEL-28 melanoma
[3] = system: HOP-92 NSCLC
[4] = system: A549 NSCLC
[5] = system: M14 melanoma
[6] = system: NCI/ADR-RES ovarian
[7] = system: HOP-62 NSCLC
[8] = system: MOLT-4 leukemia
[9] = system: OVCAR-5 ovarian
[10] = system: HL-60(TB) leukemia
[11] = system: BT-549 breast
[12] = system: UO-31 renal
[13] = system: PC-3 prostate
[14] = system: SK-MEL-2 melanoma
[15] = system: SW-620 colon
[16] = system: U251 CNS
[17] = system: KM12 colon
[18] = system: CAKI-1 renal
[19] = system: TK-10 renal
[20] = system: IGROV1 ovarian
[21] = system: COLO 205 colon
[22] = system: HCT-15 colon
[23] = system: NCI-H226 lung
[24] = system: A498 renal
[25] = system: MDA-MB-231 breast
[26] = system: SK-MEL-5 melanoma
[27] = system: K-562 leukemia
[28] = system: SR leukemia
[29] = system: OVCAR-4 ovarian
[30] = system: HT29 colon
[31] = system: HCT-116 colon
[32] = system: OVCAR-8 ovarian
[33] = system: UACC-257 melanoma
[34] = system: HCC-2998 colon
[35] = system: EKVX NSCLC
[36] = system: SF-295 CNS
[37] = system: ACHN renal
[38] = system: SNB-75 CNS
[39] = system: SK-OV-3 ovarian
[40] = system: OVCAR-3 ovarian
[41] = system: MCF7 breast
[42] = system: CCRF-CEM leukemia
[43] = system: RPMI-8226 leukemia
[44] = system: SF-539 CNS
[45] = system: UACC-62 melanoma
[46] = system: SN12C renal
[47] = system: DU-145 prostate
[48] = system: NCI-H460 lung
[49] = system: NCI-H23 lung
[50] = system: SNB-19 CNS
[51] = system: SF-268 CNS
[52] = system: T-47D breast
[53] = system: HS 578T breast
[54] = system: LOX IMVI melanoma
[55] = system: NCI-H522 lung
[56] = system: MALME-3M melanoma
[57] = system: MDA-MB-435
[58] = system: RXF 393 renal

## Nc1nc(-c2cccc3ccccc23)cc2ccccc12
[1]
  GI50: 0.503 µM
  TGI: 13.4 µM
[2]
  GI50: 0.563 µM
  TGI: 24 µM
[3]
  GI50: 1.63 µM
  TGI: 11.9 µM
[4]
  GI50: 0.476 µM
  TGI: 14.9 µM
[5]
  GI50: 0.549 µM
  TGI: 12.4 µM
[6]
  GI50: 0.463 µM
  TGI: 22.1 µM
[7]
  GI50: 1 µM
  TGI: 17.6 µM
[8]
  GI50: 0.638 µM
  TGI: > 54.2 µM
[9]
  GI50: 1.25 µM
  TGI: 19.7 µM
[10]
  GI50: 0.232 µM
  TGI: > 100 µM
[11]
  GI50: 13.2 µM
  TGI: 27.9 µM
[12]
  GI50: 1.17 µM
  TGI: 9.68 µM
[13]
  GI50: 0.257 µM
  TGI: 4.08 µM
[14]
  GI50: 0.647 µM
  TGI: 22.3 µM
[15]
  GI50: 0.314 µM
  TGI: 20 µM
[16]
  GI50: 0.494 µM
  TGI: 13.2 µM
[17]
  GI50: 0.386 µM
  TGI: 9.7 µM
[18]
  GI50: 0.46 µM
  TGI: 19.6 µM
[19]
  GI50: 6.3 µM
  TGI: 29.4 µM
[20]
  GI50: 0.444 µM
  TGI: 5.44 µM
[21]
  GI50: 0.332 µM
  TGI: 1.9 µM
[22]
  GI50: 0.409 µM
  TGI: 12.6 µM
[23]
  GI50: 1.12 µM
  TGI: 15.9 µM
[24]
  GI50: 0.351 µM
  TGI: 3.96 µM
[25]
  GI50: 0.712 µM
  TGI: 13.4 µM
[26]
  GI50: 0.287 µM
  TGI: 10.3 µM
[27]
  GI50: 4.81 µM
  TGI: > 100 µM
[28]
  TGI: > 44.2 µM
[29]
  GI50: 1.6 µM
  TGI: 24.4 µM
[30]
  GI50: 0.358 µM
  TGI: 12.9 µM
[31]
  GI50: 0.342 µM
  TGI: 13.4 µM
[32]
  GI50: 0.577 µM
  TGI: 17.8 µM
[33]
  GI50: 0.196 µM
  TGI: 16 µM
[34]
  GI50: 0.231 µM
  TGI: 1.12 µM
[35]
  GI50: 1.29 µM
  TGI: > 40.4 µM
[36]
  GI50: 0.278 µM
  TGI: 13.8 µM
[37]
  GI50: 1.1 µM
  TGI: 18.3 µM
[38]
  GI50: 0.206 µM
  TGI: 3.8 µM
[39]
  GI50: 0.466 µM
  TGI: 13.9 µM
[40]
  GI50: 0.343 µM
  TGI: 10.4 µM
[41]
  GI50: 0.108 µM
  TGI: 13.1 µM
[42]
  GI50: 0.234 µM
  TGI: 3.17 µM
[43]
  GI50: 0.214 µM
  TGI: 0.573 µM
[44]
  GI50: 0.291 µM
  TGI: 1.69 µM
[45]
  GI50: 0.521 µM
  TGI: 14.6 µM
[46]
  GI50: 0.789 µM
  TGI: 16 µM
[47]
  GI50: 0.377 µM
  TGI: 2.98 µM
[48]
  GI50: 0.332 µM
  TGI: 10.6 µM
[49]
  GI50: 0.732 µM
  TGI: 24.1 µM
[50]
  GI50: 0.514 µM
  TGI: 13.4 µM
[51]
  GI50: 0.53 µM
  TGI: 10.8 µM
[52]
  GI50: 0.359 µM
  TGI: 33.9 µM
[53]
  GI50: 0.245 µM
  TGI: 3.91 µM
[54]
  GI50: 0.777 µM
  TGI: 14.2 µM
[55]
  GI50: 0.324 µM
  TGI: 2.85 µM

## O=C1CNc2cc(N3CCN(c4ccccc4)CC3)ccc2N1
[1]
  TGI: > 100 µM
[2]
  TGI: > 100 µM
[3]
  TGI: > 100 µM
[4]
  TGI: > 100 µM
[5]
  TGI: > 100 µM
[6]
  TGI: > 100 µM
[7]
  TGI: > 100 µM
[56]
  TGI: > 100 µM
[8]
  TGI: > 100 µM
[9]
  TGI: > 100 µM
[10]
  TGI: > 100 µM
[11]
  TGI: > 100 µM
[12]
  TGI: > 100 µM
[13]
  TGI: > 100 µM
[14]
  TGI: > 100 µM
[15]
  TGI: > 100 µM
[16]
  TGI: > 100 µM
[17]
  TGI: > 100 µM
[18]
  TGI: > 100 µM
[19]
  TGI: > 100 µM
[20]
  TGI: > 100 µM
[21]
  TGI: > 100 µM
[22]
  TGI: > 100 µM
[23]
  TGI: > 100 µM
[24]
  TGI: > 100 µM
[25]
  TGI: > 100 µM
[26]
  TGI: > 100 µM
[27]
  TGI: > 100 µM
[28]
  TGI: > 100 µM
[29]
  TGI: > 100 µM
[30]
  TGI: > 100 µM
[31]
  TGI: > 100 µM
[32]
  TGI: > 100 µM
[33]
  TGI: > 100 µM
[34]
  TGI: > 100 µM
[35]
  TGI: > 100 µM
[36]
  TGI: > 100 µM
[37]
  TGI: > 100 µM
[38]
  TGI: > 100 µM
[39]
  TGI: > 100 µM
[40]
  TGI: > 100 µM
[42]
  TGI: > 100 µM
[43]
  TGI: > 100 µM
[45]
  TGI: > 100 µM
[57]
  TGI: > 100 µM
[47]
  TGI: > 100 µM
[48]
  TGI: > 100 µM
[49]
  TGI: > 100 µM
[58]
  TGI: > 100 µM
[50]
  TGI: > 100 µM
[51]
  TGI: > 100 µM
[52]
  TGI: > 100 µM
[53]
  TGI: > 100 µM
[54]
  TGI: > 100 µM
[55]
  TGI: > 100 µM
